# Results from patent US11612629B2, “Pharmaceutical composition for preventing or treating muscle diseases, containing ginseng berry extract as active ingredient” (Holistic Bio Co., Ltd., priority 2018, dated 2023).
# Key:
# [1] = system: muscle atrophy induced mice; test: Muscle fiber size and cross-sectional area of gastrocnemius (H&E, image J) in muscle atrophy induced mice; assay type: in vivo, C57BL/6 mice; details: 14 days
# Method: (§1) First, 5-week-old male C57BL/6 mice were adapted to the animal laboratory environment for 7 days and then divided into 5 groups according to the experimental conditions. Particularly, the experimental groups were divided into the non-treated control group (normal group, Cont), the group induced with muscle atrophy (induction group, IM), the positive control group induced with muscle atrophy and treated with 370 mg/kg of HMB (beta-hydroxy beta-methlybutyrate) (HMB treated group, HMB 370), the group induced with muscle atrophy and treated with low dose (100 mg/kg) of the Panax ginseng berry extract of Example 1 (Panax ginseng berry extract treated group, GBE 100), and the group induced with muscle atrophy and treated with high dose (200 mg/kg) of the Panax ginseng berry extract of Example 1 (Panax ginseng berry extract treated group, GBE 200). Muscle atrophy was induced by immobilization in which a fixation device made of 1.5 mL microfuge tube, clip and velcro tape was applied to one hind leg of a mouse according to ‘Disease models & mechanisms, 8(9), 1059-1069, 2015’. HMB and the Panax ginseng berry extract were dissolved in 0.5% carboxymethyl cellulose (CMC) and administered to the mouse orally once a day for 14 days from the day of the leg immobilization. After 14 days, the gastrocnemius and quadriceps of the hind leg were extracted, weighed, and standardized based on the body weight.
# Whether the Panax ginseng berry extract alleviates the muscle fiber cross-sectional area reduction caused by muscle atrophy was confirmed by the following method. Particularly, the gastrocnemius tissue extracted in Experimental Example 1-1 was fixed with 4% paraformaldehyde, stained with hematoxylin and eosin (H&E), and the muscle fiber cross-sectional area was quantified using image J software.
# [2] = system: muscle atrophy induced mice; test: Muscle weight (gastrocnemius, quadriceps) per body weight in immobilization-induced muscle atrophy mice; assay type: in vivo, C57BL/6 mice
# Method: as §1
smiles,measurement,setting,value
"CC(C)(O)CC(=O)O [HMB, beta-hydroxy beta-methlybutyrate]","muscle atrophy protection, muscle fiber cross-sectional area",[1]; 370 mg/kg orally,about 13%
same,muscle fiber cross-sectional area decreased compared to the normal group,"[1]; 370 mg/kg orally, induction group about 60%",about 47%
same,reduction in muscle fiber size (FIG. 3),"[1]; gastrocnemius, HMB 370 mg/kg, extract 100 and 200 mg/kg orally",alleviated
same,weight of the quadriceps reduced compared to the normal group,"[2]; 370 mg/kg orally once a day for 14 days, induction group (IM) about 33%",about 17%
same,weight of the gastrocnemius reduced compared to the normal group,"[2]; 370 mg/kg orally once a day for 14 days, induction group (IM) about 40%",about 24%
same,protective ability of muscle atrophy (muscle weight),"[2]; 370 mg/kg orally, 14 days, gastrocnemius and quadriceps",about 16%
